Measured values: the supplement of paper PMC4862054

What was measured:
Conditions in all cases: incubation time: 72 h
BT-474 [1] = experiment: normalised response (% of control), CellTiter-Glo; higher = more viable cells (100 = DMSO, 0 = benzethonium chloride kill control)
How it was run: (§1)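 CellTox Green fluorescence (485/520 nm) and, after 10 min at room temperature, CellTiter-Glo luminescence were read from breast cancer cell lines incubated 72 h in 384-well plates. Cells were seeded as 20 µl suspension onto compound at 5 concentrations in 10-fold steps over a 10,000-fold range chosen per compound. Each plate was normalised to 0.1 % DMSO (100) and a positive kill control (0). Values are normalised signals, one per concentration.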

BT-549 [2] = experiment: as above
How it was run: as §1

CAL-120 [3] = experiment: as above
How it was run: as §1

CAL-148 [4] = experiment: as above
How it was run: as §1

CAL-51 [5] = experiment: as above
How it was run: as §1

CAL-85-1 [6] = experiment: as above
How it was run: as §1

DU-4475 [7] = experiment: as above
How it was run: as §1

HCC1143 [8] = experiment: as above
How it was run: as §1

HCC1599 [9] = experiment: as above
How it was run: as §1

HCC1937 [10] = experiment: as above
How it was run: as §1

HDQ-P1 [11] = experiment: as above
How it was run: as §1

Hs578T [12] = experiment: as above
How it was run: as §1

MCF-10A = experiment: as above
How it was run: as §1

MDA-MB-231 [13] = experiment: as above
How it was run: as §1

MDA-MB-436 [14] = experiment: as above
How it was run: as §1

MDA-MB-453 [15] = experiment: as above
How it was run: as §1

MDA-MB-468 [16] = experiment: as above
How it was run: as §1

MFM-223 [17] = experiment: as above
How it was run: as §1

SK-BR-3 [18] = experiment: as above
How it was run: as §1

BT-474 [19] = experiment: normalised viability (% of control), CellTiter-Blue; higher = more viable cells (100 = DMSO, 0 = benzethonium chloride kill control)
How it was run: (§2)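 Vehicle (100) and a positive kill control (0) anchored the normalisation of each plate, and Z'-factor was used for quality control. Breast cancer cell lines in 20 µl suspension were incubated 72 h over compound in 5 µl medium in 384-well plates, followed by CellTiter-Blue at 560/590 nm. The value is normalised viability at a single listed concentration of the series.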

BT-549 [20] = experiment: as above
How it was run: as §2

CAL-120 [21] = experiment: as above
How it was run: as §2

CAL-148 [22] = experiment: as above
How it was run: as §2

CAL-51 [23] = experiment: as above
How it was run: as §2

CAL-85-1 [24] = experiment: as above
How it was run: as §2

DU-4475 [25] = experiment: as above
How it was run: as §2

HCC1143 [26] = experiment: as above
How it was run: as §2

HCC1599 [27] = experiment: as above
How it was run: as §2

HCC1937 [28] = experiment: as above
How it was run: as §2

HDQ-P1 [29] = experiment: as above
How it was run: as §2

Hs578T [30] = experiment: as above
How it was run: as §2

MDA-MB-231 [31] = experiment: as above
How it was run: as §2

MDA-MB-436 [32] = experiment: as above
How it was run: as §2

MDA-MB-453 [33] = experiment: as above
How it was run: as §2

MDA-MB-468 [34] = experiment: as above
How it was run: as §2

MFM-223 [35] = experiment: as above
How it was run: as §2

SK-BR-3 [36] = experiment: as above
How it was run: as §2

Row | SMILES | normalised response (BT-474 [1]) | normalised response (BT-549 [2]) | normalised response (CAL-120 [3]) | normalised response (CAL-148 [4]) | normalised response (CAL-51 [5]) | normalised response (CAL-85-1 [6]) | normalised response (DU-4475 [7]) | normalised response (HCC1143 [8]) | normalised response (HCC1599 [9]) | normalised response (HCC1937 [10]) | normalised response (HDQ-P1 [11]) | normalised response (Hs578T [12]) | normalised response (MCF-10A) | normalised response (MDA-MB-231 [13]) | normalised response (MDA-MB-436 [14]) | normalised response (MDA-MB-453 [15]) | normalised response (MDA-MB-468 [16]) | normalised response (MFM-223 [17]) | normalised response (SK-BR-3 [18]) | normalised viability (BT-474 [19]) | normalised viability (BT-549 [20]) | normalised viability (CAL-120 [21]) | normalised viability (CAL-148 [22]) | normalised viability (CAL-51 [23]) | normalised viability (CAL-85-1 [24]) | normalised viability (DU-4475 [25]) | normalised viability (HCC1143 [26]) | normalised viability (HCC1599 [27]) | normalised viability (HCC1937 [28]) | normalised viability (HDQ-P1 [29]) | normalised viability (Hs578T [30]) | normalised viability (MDA-MB-231 [31]) | normalised viability (MDA-MB-436 [32]) | normalised viability (MDA-MB-453 [33]) | normalised viability (MDA-MB-468 [34]) | normalised viability (MFM-223 [35]) | normalised viability (SK-BR-3 [36])
1 | Cn1cnc2c(F)c(Nc3ccc(Br)cc3F)c(C(=O)NOCCO)cc21 [MEK-162] (0.1 nM) | 104% | 98.5% | 103% | 96.2% | 93.5% | 100% | 98.6% | 94.3% | 114% | 94.4% | 99.2% | 94.3% | 105% | 101% | 97.9% | 115% | 108% | 101% | 103% | 122% | 105% | 83.7% | 111% | 109% | 91.2% | 106% | 112% | 108% | 105% | 102% | 125% | 116% | 104% | 100% | 104% | 92.1% | 102%
2 | CCOc1cc2ncc(C#N)c(Nc3ccc(OCc4ccccn4)c(Cl)c3)c2cc1NC(=O)/C=C/CN(C)C [Neratinib] (0.1 nM) | 105% | 103% | 98.4% | 105% | 89% | 97.2% | 98.5% | 100% | 96.6% | 97.8% | 102% | 106% | 104% | 98.3% | 94.8% | 117% | 105% | 108% | 101% | 97.3% | 105% | 86% | 96.7% | 91.5% | 83% | 107% | 103% | 104% | 82.6% | 86.8% | 99.7% | 99.6% | 123% | 105% | 100% | 99.2% | 99.8%
3 | COc1ccc(C2=N[C@@H](c3ccc(Cl)cc3)[C@@H](c3ccc(Cl)cc3)N2C(=O)N2CCNC(=O)C2)c(OC(C)C)c1 [Nutlin-3] (1 nM) | 99.8% | 97.7% | 94.6% | 115% | 84.8% | 102% | 106% | 103% | 104% | 103% | 105% | 103% | 101% | 105% | 119% | 114% | 98.6% | 101% | 106% | 110% | 107% | 78.7% | 104% | 96.3% | 90.5% | 82.5% | 89.8% | 91.6% | 71.5% | 89% | 95.9% | 101% | 101% | 102% | 92.8% | 89.4% | 95.6%
4 | COC1=CC(c2cc3ccccc3[nH]2)=N/C1=C\c1[nH]c(C)cc1C [Obatoclax] (1 nM) | 96.6% | 97.7% | 96.4% | 87.8% | 111% | 95% | 100% | 92.5% | 87.7% | 95.4% | 92.9% | 93.5% | 87% | 96.6% | 95.6% | 90.6% | 98.7% | 92.8% | 89% | 96.2% | 90.6% | 79.6% | 94.7% | 105% | 78.3% | 93.6% | 81% | 85.6% | 90.5% | 78.8% | 103% | 71.4% | 83.5% | 86.2% | 99% | 81% | 74.9%
